Experimental data as given in the kinase profiling compilation of Christmann-Franck et al. (2016).

Key:
Test in all cases: KINOMEscan competition binding
Settings in all cases: compound 10.0 µM
RPS6KA5 KD1 (human) = RPS6KA5 KD1 (human) (UniProt O75582)
NUAK2 (human) = NUAK2 (human) (UniProt Q9H093)
RPS6KA5 KD2 (human) = RPS6KA5 KD2 (human) (UniProt O75582)
PRKACB (human) = PRKACB (human) (UniProt P22694)
NEK1 (human) = NEK1 (human) (UniProt Q96PY6)
NEK9 (human) = NEK9 (human) (UniProt Q8TD19)
NTRK1 (human) = NTRK1 (human) (UniProt P04629)
CDK2 (human) = CDK2 (human) (UniProt P24941)
CSNK1A1 (human) = CSNK1A1 (human) (UniProt P48729)
VRK2 (human) = VRK2 (human) (UniProt Q86Y07)
PAK7 (human) = PAK7 (human) (UniProt Q9P286)
BTK (human) = BTK (human) (UniProt Q06187)
MAPK8 (human) = MAPK8 (human) (UniProt P45983)
FYN (human) = FYN (human) (UniProt P06241)
CSNK1G3 (human) = CSNK1G3 (human) (UniProt Q9Y6M4)
PIP5K1C (human) = PIP5K1C (human) (UniProt O60331)
LCK (human) = LCK (human) (UniProt P06239)
MAPKAPK2 (human) = MAPKAPK2 (human) (UniProt P49137)
PIK3C2B (human) = PIK3C2B (human) (UniProt O00750)
IKBKB (human) = IKBKB (human) (UniProt O14920)
ICK (human) = ICK (human) (UniProt Q9UPZ9)
EPHA5 (human) = EPHA5 (human) (UniProt P54756)
TNK2 (human) = TNK2 (human) (UniProt Q07912)
NEK2 (human) = NEK2 (human) (UniProt P51955)
CDK4 CCND3 (human) = CDK4 CCND3 (human) (UniProt P11802+P30281)
EGFR (human) = EGFR (human) (UniProt P00533)
FGFR3 (human) = FGFR3 (human) (UniProt P22607)
HUNK (human) = HUNK (human) (UniProt P57058)
BMPR2 (human) = BMPR2 (human) (UniProt Q13873)
MAPK11 (human) = MAPK11 (human) (UniProt Q15759)
CAMKK1 (human) = CAMKK1 (human) (UniProt Q8N5S9)
BRAF (human) = BRAF (human) (UniProt P15056)
ERN1 (human) = ERN1 (human) (UniProt O75460)
AURKB (human) = AURKB (human) (UniProt Q96GD4)
EIF2AK2 (human) = EIF2AK2 (human) (UniProt P19525)
CaMK1 (human) = CaMK1 (human) (UniProt Q14012)
NEK11 (human) = NEK11 (human) (UniProt Q8NG66)

VRK2 (human), sequence (Q86Y07 whole entry, looked up): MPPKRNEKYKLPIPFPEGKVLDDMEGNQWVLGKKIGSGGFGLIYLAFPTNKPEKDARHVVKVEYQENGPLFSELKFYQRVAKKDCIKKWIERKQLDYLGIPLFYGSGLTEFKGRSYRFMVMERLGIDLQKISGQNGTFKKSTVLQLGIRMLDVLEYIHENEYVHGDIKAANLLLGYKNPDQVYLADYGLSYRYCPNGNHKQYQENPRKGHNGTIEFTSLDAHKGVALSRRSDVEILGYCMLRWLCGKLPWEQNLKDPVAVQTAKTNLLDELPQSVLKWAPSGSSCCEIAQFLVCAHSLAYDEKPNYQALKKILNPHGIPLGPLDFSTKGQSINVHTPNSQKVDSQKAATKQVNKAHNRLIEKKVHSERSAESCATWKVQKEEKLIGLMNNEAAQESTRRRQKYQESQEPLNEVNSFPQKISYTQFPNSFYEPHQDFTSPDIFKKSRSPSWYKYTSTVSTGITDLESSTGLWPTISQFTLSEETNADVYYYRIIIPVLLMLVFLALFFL
TNK2 (human), sequence (Q07912 whole entry, looked up): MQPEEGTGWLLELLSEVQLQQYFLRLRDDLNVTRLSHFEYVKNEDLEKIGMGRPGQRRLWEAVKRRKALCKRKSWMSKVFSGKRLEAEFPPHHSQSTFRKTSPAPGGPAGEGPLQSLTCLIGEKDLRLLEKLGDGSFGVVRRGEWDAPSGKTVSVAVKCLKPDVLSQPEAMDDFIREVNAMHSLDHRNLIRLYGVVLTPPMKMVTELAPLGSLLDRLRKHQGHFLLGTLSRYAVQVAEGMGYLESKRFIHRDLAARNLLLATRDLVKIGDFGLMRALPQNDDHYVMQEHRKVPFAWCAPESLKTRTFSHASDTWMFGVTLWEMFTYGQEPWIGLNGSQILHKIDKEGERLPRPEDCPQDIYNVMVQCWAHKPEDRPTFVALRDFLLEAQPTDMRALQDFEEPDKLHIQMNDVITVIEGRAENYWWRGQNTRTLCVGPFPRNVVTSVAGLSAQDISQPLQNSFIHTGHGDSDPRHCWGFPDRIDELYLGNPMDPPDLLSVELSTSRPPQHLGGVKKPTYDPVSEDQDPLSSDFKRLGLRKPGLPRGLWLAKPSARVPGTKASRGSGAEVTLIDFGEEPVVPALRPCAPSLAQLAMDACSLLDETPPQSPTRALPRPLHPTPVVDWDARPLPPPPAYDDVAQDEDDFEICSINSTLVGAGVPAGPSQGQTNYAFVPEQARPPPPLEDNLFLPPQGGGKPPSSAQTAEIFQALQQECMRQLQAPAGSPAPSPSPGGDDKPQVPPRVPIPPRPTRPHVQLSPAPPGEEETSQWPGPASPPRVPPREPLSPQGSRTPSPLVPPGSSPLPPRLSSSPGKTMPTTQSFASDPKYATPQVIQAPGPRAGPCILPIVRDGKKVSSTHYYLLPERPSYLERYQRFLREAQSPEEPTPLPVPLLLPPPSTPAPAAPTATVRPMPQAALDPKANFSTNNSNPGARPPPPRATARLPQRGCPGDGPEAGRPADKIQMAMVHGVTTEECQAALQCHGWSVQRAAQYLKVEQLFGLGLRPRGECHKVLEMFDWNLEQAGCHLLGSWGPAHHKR
HUNK (human), sequence (P57058 whole entry, looked up): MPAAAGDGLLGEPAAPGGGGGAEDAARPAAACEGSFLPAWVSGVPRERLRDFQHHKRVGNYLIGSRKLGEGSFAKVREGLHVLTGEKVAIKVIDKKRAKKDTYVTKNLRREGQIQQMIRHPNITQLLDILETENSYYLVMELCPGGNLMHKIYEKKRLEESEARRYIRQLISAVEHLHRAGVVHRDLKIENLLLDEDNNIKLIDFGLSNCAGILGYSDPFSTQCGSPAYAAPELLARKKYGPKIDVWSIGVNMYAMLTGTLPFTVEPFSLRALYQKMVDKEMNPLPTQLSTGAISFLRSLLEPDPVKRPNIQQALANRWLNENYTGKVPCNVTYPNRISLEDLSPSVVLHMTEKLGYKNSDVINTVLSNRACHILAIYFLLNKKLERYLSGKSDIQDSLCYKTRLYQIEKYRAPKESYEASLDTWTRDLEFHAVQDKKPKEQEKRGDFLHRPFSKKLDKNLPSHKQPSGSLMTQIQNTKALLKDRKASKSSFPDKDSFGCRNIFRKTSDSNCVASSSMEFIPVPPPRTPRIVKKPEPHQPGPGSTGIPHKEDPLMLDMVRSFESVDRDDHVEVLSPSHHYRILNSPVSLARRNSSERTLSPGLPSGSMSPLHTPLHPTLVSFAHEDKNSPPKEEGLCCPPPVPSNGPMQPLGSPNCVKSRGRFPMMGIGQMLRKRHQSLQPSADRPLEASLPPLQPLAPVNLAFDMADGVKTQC
PAK7 (human), sequence (Q9P286 whole entry, looked up): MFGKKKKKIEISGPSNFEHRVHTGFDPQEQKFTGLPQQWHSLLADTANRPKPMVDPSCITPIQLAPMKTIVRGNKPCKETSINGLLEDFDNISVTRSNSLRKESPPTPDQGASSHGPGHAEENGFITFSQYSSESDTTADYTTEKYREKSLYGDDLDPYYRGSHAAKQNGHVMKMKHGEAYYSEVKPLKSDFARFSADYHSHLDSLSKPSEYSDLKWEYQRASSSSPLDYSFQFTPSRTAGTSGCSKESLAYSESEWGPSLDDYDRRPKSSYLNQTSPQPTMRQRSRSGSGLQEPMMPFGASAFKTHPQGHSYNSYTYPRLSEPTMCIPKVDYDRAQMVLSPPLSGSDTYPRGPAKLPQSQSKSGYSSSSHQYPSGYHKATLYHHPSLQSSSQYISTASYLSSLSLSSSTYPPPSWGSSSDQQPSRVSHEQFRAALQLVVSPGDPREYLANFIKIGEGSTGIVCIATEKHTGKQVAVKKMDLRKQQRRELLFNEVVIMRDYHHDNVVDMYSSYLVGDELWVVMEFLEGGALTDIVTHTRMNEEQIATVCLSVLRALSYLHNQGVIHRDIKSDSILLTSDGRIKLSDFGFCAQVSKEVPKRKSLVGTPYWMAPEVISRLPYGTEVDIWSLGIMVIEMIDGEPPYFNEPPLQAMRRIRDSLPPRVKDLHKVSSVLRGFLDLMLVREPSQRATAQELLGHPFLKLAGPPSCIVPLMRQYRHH
IKBKB (human), sequence (O14920 whole entry, looked up): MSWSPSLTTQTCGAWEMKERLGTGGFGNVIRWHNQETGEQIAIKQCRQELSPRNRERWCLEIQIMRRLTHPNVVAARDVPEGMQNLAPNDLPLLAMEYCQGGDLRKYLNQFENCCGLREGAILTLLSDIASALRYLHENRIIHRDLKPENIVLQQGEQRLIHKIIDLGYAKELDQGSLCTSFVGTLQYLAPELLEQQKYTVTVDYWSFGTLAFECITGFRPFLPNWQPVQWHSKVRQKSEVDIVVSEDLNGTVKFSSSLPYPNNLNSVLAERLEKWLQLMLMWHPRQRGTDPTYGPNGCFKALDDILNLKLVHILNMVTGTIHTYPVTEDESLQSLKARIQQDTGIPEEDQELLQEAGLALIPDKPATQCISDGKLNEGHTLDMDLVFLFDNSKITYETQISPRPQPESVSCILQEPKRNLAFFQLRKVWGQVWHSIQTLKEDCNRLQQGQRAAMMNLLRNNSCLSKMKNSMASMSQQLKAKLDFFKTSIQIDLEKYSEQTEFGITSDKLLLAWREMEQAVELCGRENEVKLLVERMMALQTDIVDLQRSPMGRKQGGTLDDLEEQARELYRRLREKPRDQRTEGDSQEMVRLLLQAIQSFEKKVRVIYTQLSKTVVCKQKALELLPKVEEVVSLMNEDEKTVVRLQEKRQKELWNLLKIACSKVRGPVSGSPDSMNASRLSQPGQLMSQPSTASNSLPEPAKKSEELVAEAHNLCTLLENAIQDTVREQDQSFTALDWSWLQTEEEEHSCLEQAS
CAMKK1 (human), sequence (Q8N5S9 whole entry, looked up): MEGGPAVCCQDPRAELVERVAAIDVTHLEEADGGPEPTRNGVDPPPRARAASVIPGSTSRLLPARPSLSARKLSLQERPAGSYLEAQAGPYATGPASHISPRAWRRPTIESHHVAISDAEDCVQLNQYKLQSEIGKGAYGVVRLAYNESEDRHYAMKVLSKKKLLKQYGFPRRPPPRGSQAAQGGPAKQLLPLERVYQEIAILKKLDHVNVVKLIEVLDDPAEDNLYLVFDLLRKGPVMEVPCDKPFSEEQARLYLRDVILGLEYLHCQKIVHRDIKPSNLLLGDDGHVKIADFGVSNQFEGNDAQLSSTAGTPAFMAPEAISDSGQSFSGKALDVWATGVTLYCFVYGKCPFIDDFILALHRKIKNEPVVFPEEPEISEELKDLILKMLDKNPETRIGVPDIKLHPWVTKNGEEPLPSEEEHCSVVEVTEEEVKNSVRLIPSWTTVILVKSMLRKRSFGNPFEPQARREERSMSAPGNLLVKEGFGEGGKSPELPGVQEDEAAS
EIF2AK2 (human), sequence (P19525 whole entry, looked up): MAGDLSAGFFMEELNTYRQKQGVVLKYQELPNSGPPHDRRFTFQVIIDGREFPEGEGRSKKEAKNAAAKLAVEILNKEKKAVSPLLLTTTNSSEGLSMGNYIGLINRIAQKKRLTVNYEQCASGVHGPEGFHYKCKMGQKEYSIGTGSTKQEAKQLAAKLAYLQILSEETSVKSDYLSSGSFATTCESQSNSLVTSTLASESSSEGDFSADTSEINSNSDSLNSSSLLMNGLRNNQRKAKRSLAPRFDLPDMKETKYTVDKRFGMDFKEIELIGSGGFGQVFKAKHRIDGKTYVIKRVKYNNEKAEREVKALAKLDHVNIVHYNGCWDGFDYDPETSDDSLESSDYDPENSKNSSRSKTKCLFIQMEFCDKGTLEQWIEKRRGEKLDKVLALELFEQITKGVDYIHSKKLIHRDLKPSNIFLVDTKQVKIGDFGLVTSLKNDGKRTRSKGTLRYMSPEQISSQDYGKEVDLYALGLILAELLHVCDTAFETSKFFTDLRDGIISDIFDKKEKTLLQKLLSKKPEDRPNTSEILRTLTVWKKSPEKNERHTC

| Compound | kinase still bound, per cent of control (RPS6KA5 KD1 (human)) | kinase still bound, per cent of control (NUAK2 (human)) | kinase still bound, per cent of control (RPS6KA5 KD2 (human)) | kinase still bound, per cent of control (PRKACB (human)) | kinase still bound, per cent of control (NEK9 (human)) | kinase still bound, per cent of control (NTRK1 (human)) | kinase still bound, per cent of control (CDK2 (human)) | kinase still bound, per cent of control (VRK2 (human)) | kinase still bound, per cent of control (PAK7 (human)) | kinase still bound, per cent of control (MAPK8 (human)) | kinase still bound, per cent of control (CSNK1G3 (human)) | kinase still bound, per cent of control (PIP5K1C (human)) | kinase still bound, per cent of control (MAPKAPK2 (human)) | kinase still bound, per cent of control (PIK3C2B (human)) | kinase still bound, per cent of control (IKBKB (human)) | kinase still bound, per cent of control (ICK (human)) | kinase still bound, per cent of control (TNK2 (human)) | kinase still bound, per cent of control (NEK2 (human)) | kinase still bound, per cent of control (CDK4 CCND3 (human)) | kinase still bound, per cent of control (FGFR3 (human)) | also measured |
| --- | --- | --- | --- | --- | --- | --- | --- | --- | --- | --- | --- | --- | --- | --- | --- | --- | --- | --- | --- | --- | --- |
| CCCS(=O)(=O)Nc1ccc(F)c(C(=O)c2c[nH]c3ncc(Cl)cc23)c1F | 100% | 41% | 86% | 100% | 66% | 100% | 78% | 77% | 44% | 96% | 79% | 79% | 100% | 84% | 75% | 63% | 8.2% | 49% | 70% | 71% | kinase still bound, per cent of control (NEK1 (human)): 72%; kinase still bound, per cent of control (CSNK1A1 (human)): 84%; kinase still bound, per cent of control (BTK (human)): 52%; kinase still bound, per cent of control (FYN (human)): 11%; kinase still bound, per cent of control (LCK (human)): 3.2%; kinase still bound, per cent of control (EPHA5 (human)): 100%; kinase still bound, per cent of control (EGFR (human)): 76%; kinase still bound, per cent of control (HUNK (human)): 24%; kinase still bound, per cent of control (BMPR2 (human)): 67%; kinase still bound, per cent of control (MAPK11 (human)): 100%; kinase still bound, per cent of control (CAMKK1 (human)): 75%; kinase still bound, per cent of control (BRAF (human)): 0%; kinase still bound, per cent of control (ERN1 (human)): 78%; kinase still bound, per cent of control (AURKB (human)): 29%; kinase still bound, per cent of control (EIF2AK2 (human)): 74% |
| CCc1nc(-c2cccc(C)c2)c(-c2ccnc(NC(=O)c3ccccc3)c2)s1 | 100% | 100% | 100% | 95% | 100% | 100% | 100% | 63% | 90% | 0.3% | 17% | 100% | 100% | 100% | 100% | 100% | 78% | 95% | 92% | 86% | kinase still bound, per cent of control (CaMK1 (human)): 85%; kinase still bound, per cent of control (NEK1 (human)): 90%; kinase still bound, per cent of control (FYN (human)): 45%; kinase still bound, per cent of control (LCK (human)): 41%; kinase still bound, per cent of control (NEK11 (human)): 100%; kinase still bound, per cent of control (EPHA5 (human)): 90%; kinase still bound, per cent of control (HUNK (human)): 15%; kinase still bound, per cent of control (BMPR2 (human)): 90%; kinase still bound, per cent of control (MAPK11 (human)): 0%; kinase still bound, per cent of control (CAMKK1 (human)): 100%; kinase still bound, per cent of control (BRAF (human)): 40%; kinase still bound, per cent of control (ERN1 (human)): 100%; kinase still bound, per cent of control (AURKB (human)): 100%; kinase still bound, per cent of control (EIF2AK2 (human)): 94% |
| CCN(CCO)CCCOc1ccc2c(Nc3cc(CC(=O)Nc4cccc(F)c4)[nH]n3)ncnc2c1 | 100% | 54% | 100% | 100% | 100% | 6.8% | 84% | 100% | 100% | 59% | 100% | 75% | 100% | 58% | 91% | 74% | 100% | 83% | 100% | 92% | kinase still bound, per cent of control (CaMK1 (human)): 69%; kinase still bound, per cent of control (CSNK1A1 (human)): 49%; kinase still bound, per cent of control (BTK (human)): 7.2%; kinase still bound, per cent of control (NEK11 (human)): 98%; kinase still bound, per cent of control (HUNK (human)): 94%; kinase still bound, per cent of control (MAPK11 (human)): 100%; kinase still bound, per cent of control (CAMKK1 (human)): 71%; kinase still bound, per cent of control (BRAF (human)): 100%; kinase still bound, per cent of control (ERN1 (human)): 67%; kinase still bound, per cent of control (AURKB (human)): 0.2%; kinase still bound, per cent of control (EIF2AK2 (human)): 100% |
| N#Cc1cc(-c2ccnc(Nc3ccc(-n4cnc(-c5cccnc5)n4)cc3)n2)cc(N2CCOCC2)c1 | 100% | 57% | 100% | 100% | 63% | 53% | 30% | 100% | 21% | 0.05% | 100% | 100% | 100% | 76% | 38% | 2.6% | 61% | 94% | 12% | 74% | kinase still bound, per cent of control (CaMK1 (human)): 83%; kinase still bound, per cent of control (NEK1 (human)): 57%; kinase still bound, per cent of control (CSNK1A1 (human)): 60%; kinase still bound, per cent of control (BTK (human)): 74%; kinase still bound, per cent of control (FYN (human)): 83%; kinase still bound, per cent of control (LCK (human)): 48%; kinase still bound, per cent of control (NEK11 (human)): 100%; kinase still bound, per cent of control (EPHA5 (human)): 91%; kinase still bound, per cent of control (EGFR (human)): 71%; kinase still bound, per cent of control (HUNK (human)): 42%; kinase still bound, per cent of control (BMPR2 (human)): 72%; kinase still bound, per cent of control (MAPK11 (human)): 79%; kinase still bound, per cent of control (CAMKK1 (human)): 48%; kinase still bound, per cent of control (ERN1 (human)): 54%; kinase still bound, per cent of control (AURKB (human)): 57%; kinase still bound, per cent of control (EIF2AK2 (human)): 48% |
